Experimental data as given in PubChem BioAssay AID1963970 (Molecular Pharmacology Branch, DTP, NCI, 2024).

Test system: 931267-113-T-J1-PDC multicell spheroid viability
Experiment: Anticancer human tumor 931267-113-T-J1-PDC patient-derived colon adenocarcinoma cell line growth inhibition [PI3K]
Conditions: for IC50: curve of first compound; for viability, T/C: stronger effect = lower value
In short: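 Multi-cell spheroids combine tumor cells with HUVEC and human MSCs, treated with targeted agents alone or with inavolisib, alpelisib, duvelisib or copanlisib. Concentrations fall in half-log steps from at or near clinical Cmax, or from 10 microM where Cmax is unknown; viability read-out.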

[1] = second compound 0.0316 µM, first compound 0.0316 µM
[2] = second compound 0.0316 µM, first compound 0.1 µM
[3] = second compound 0.0316 µM, first compound 0.316 µM
[4] = second compound 0.0316 µM, first compound 1 µM
[5] = second compound 0.0316 µM, first compound 3.16 µM
[6] = second compound 0.0316 µM, first compound 10 µM
[7] = second compound 0.1 µM, first compound 0.0316 µM
[8] = second compound 0.1 µM, first compound 0.1 µM
[9] = second compound 0.1 µM, first compound 0.316 µM
[10] = second compound 0.1 µM, first compound 1 µM
[11] = second compound 0.1 µM, first compound 3.16 µM
[12] = second compound 0.1 µM, first compound 10 µM
[13] = second compound 0.316 µM, first compound 0.0316 µM
[14] = second compound 0.316 µM, first compound 0.1 µM
[15] = second compound 0.316 µM, first compound 0.316 µM
[16] = second compound 0.316 µM, first compound 1 µM
[17] = second compound 0.316 µM, first compound 3.16 µM
[18] = second compound 0.316 µM, first compound 10 µM
[19] = second compound 1 µM, first compound 0.0316 µM
[20] = second compound 1 µM, first compound 0.1 µM
[21] = second compound 1 µM, first compound 0.316 µM
[22] = second compound 1 µM, first compound 1 µM
[23] = second compound 1 µM, first compound 3.16 µM
[24] = second compound 1 µM, first compound 10 µM
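Also: viability read 7 days after compound addition.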

## CC1(C)CCC(Nc2ncc(C(F)(F)F)c(-c3c[nH]c4c(P(C)(C)=O)c(C#N)ccc34)n2)CN1 (stereo unspecified) + COc1c(OCCCN2CCOCC2)ccc2c3n(c(=NC(=O)c4cnc(N)nc4)nc12)CCN3
Second compound 0.00316 µM
  IC50: > 10000 nM
Second compound 0.01 µM
  IC50: > 10000 nM
Second compound 0.0316 µM
  IC50: > 10000 nM
Second compound 0.1 µM
  IC50: 4290 nM
Second compound 0.316 µM
  IC50: < 31.6 nM
Second compound 1 µM
  IC50: < 31.6 nM
Second compound 0.00316 µM, first compound 0.0316 µM
  viability, T/C: 92.5%
Second compound 0.00316 µM, first compound 0.1 µM
  viability, T/C: 94.2%
Second compound 0.00316 µM, first compound 0.316 µM
  viability, T/C: 91.6%
Second compound 0.00316 µM, first compound 1 µM
  viability, T/C: 81.2%
Second compound 0.00316 µM, first compound 3.16 µM
  viability, T/C: 76.5%
Second compound 0.00316 µM, first compound 10 µM
  viability, T/C: 69.3%
Second compound 0.01 µM, first compound 0.0316 µM
  viability, T/C: 97.3%
Second compound 0.01 µM, first compound 0.1 µM
  viability, T/C: 89.5%
Second compound 0.01 µM, first compound 0.316 µM
  viability, T/C: 81.5%
Second compound 0.01 µM, first compound 1 µM
  viability, T/C: 83.5%
Second compound 0.01 µM, first compound 3.16 µM
  viability, T/C: 77.3%
Second compound 0.01 µM, first compound 10 µM
  viability, T/C: 61.5%
[1]
  viability, T/C: 81.6%
[2]
  viability, T/C: 78%
[3]
  viability, T/C: 77.6%
[4]
  viability, T/C: 67.1%
[5]
  viability, T/C: 70.6%
[6]
  viability, T/C: 55.2%
[7]
  viability, T/C: 64.5%
[8]
  viability, T/C: 66.1%
[9]
  viability, T/C: 60%
[10]
  viability, T/C: 58.2%
[11]
  viability, T/C: 55.5%
[12]
  viability, T/C: 39.8%
[13]
  viability, T/C: 47.3%
[14]
  viability, T/C: 44.8%
[15]
  viability, T/C: 41.2%
[16]
  viability, T/C: 41.5%
[17]
  viability, T/C: 40.6%
[18]
  viability, T/C: 33.5%
[19]
  viability, T/C: 33.8%
[20]
  viability, T/C: 30.1%
[21]
  viability, T/C: 30.2%
[22]
  viability, T/C: 28.3%
[23]
  viability, T/C: 30.5%
[24]
  viability, T/C: 20.9%

## CNC(=O)c1ccc(N2C(=S)N(c3ccc(C#N)c(C(F)(F)F)c3)C(=O)C2(C)C)cc1F + Cc1nc(NC(=O)N2CCCC2C(N)=O)sc1-c1ccnc(C(C)(C)C(F)(F)F)c1
Second compound 0.0316 µM
  IC50: > 10000 nM
Second compound 0.1 µM
  IC50: > 10000 nM
Second compound 0.316 µM
  IC50: > 10000 nM
Second compound 1 µM
  IC50: > 10000 nM
Second compound 3.16 µM
  IC50: > 10000 nM
Second compound 10 µM
  IC50: 3660 nM
[1]
  viability, T/C: 112%
[2]
  viability, T/C: 85%
[3]
  viability, T/C: 95.4%
[4]
  viability, T/C: 105%
[5]
  viability, T/C: 101%
[6]
  viability, T/C: 93.5%
[7]
  viability, T/C: 94%
[8]
  viability, T/C: 105%
[9]
  viability, T/C: 98.7%
[10]
  viability, T/C: 105%
[11]
  viability, T/C: 99.5%
[12]
  viability, T/C: 98.5%
[13]
  viability, T/C: 92.9%
[14]
  viability, T/C: 75.9%
[15]
  viability, T/C: 87.9%
[16]
  viability, T/C: 80.5%
[17]
  viability, T/C: 89.3%
[18]
  viability, T/C: 76.5%
[19]
  viability, T/C: 89.6%
[20]
  viability, T/C: 66.4%
[21]
  viability, T/C: 73.9%
[22]
  viability, T/C: 85.1%
[23]
  viability, T/C: 83.5%
[24]
  viability, T/C: 76.2%
Second compound 3.16 µM, first compound 0.0316 µM
  viability, T/C: 71.2%
Second compound 3.16 µM, first compound 0.1 µM
  viability, T/C: 64.5%
Second compound 3.16 µM, first compound 0.316 µM
  viability, T/C: 73.8%
Second compound 3.16 µM, first compound 1 µM
  viability, T/C: 62.5%
Second compound 3.16 µM, first compound 3.16 µM
  viability, T/C: 77.2%
Second compound 3.16 µM, first compound 10 µM
  viability, T/C: 67.5%
Second compound 10 µM, first compound 0.0316 µM
  viability, T/C: 59.7%
Second compound 10 µM, first compound 0.1 µM
  viability, T/C: 54.2%
Second compound 10 µM, first compound 0.316 µM
  viability, T/C: 56.2%
Second compound 10 µM, first compound 1 µM
  viability, T/C: 53.3%
Second compound 10 µM, first compound 3.16 µM
  viability, T/C: 56.4%
Second compound 10 µM, first compound 10 µM
  viability, T/C: 42.2%

## Cn1cnc2c(F)c(Nc3ccc(Br)cc3Cl)c(C(=O)NOCCO)cc21 + Cc1nc(NC(=O)N2CCCC2C(N)=O)sc1-c1ccnc(C(C)(C)C(F)(F)F)c1
Second compound 0.0316 µM
  IC50: 75.8 nM
Second compound 0.1 µM
  IC50: 80.6 nM
Second compound 0.316 µM
  IC50: 61.6 nM
Second compound 1 µM
  IC50: 42.1 nM
Second compound 3.16 µM
  IC50: 19.6 nM
Second compound 10 µM
  IC50: < 9.49 nM
Second compound 0.0316 µM, first compound 0.00949 µM
  viability, T/C: 86%
Second compound 0.0316 µM, first compound 0.03 µM
  viability, T/C: 63.5%
Second compound 0.0316 µM, first compound 0.0949 µM
  viability, T/C: 47.3%
Second compound 0.0316 µM, first compound 0.3 µM
  viability, T/C: 32.2%
Second compound 0.0316 µM, first compound 0.949 µM
  viability, T/C: 18.7%
Second compound 0.0316 µM, first compound 3 µM
  viability, T/C: 12%
Second compound 0.1 µM, first compound 0.00949 µM
  viability, T/C: 85.7%
Second compound 0.1 µM, first compound 0.03 µM
  viability, T/C: 70.2%
Second compound 0.1 µM, first compound 0.0949 µM
  viability, T/C: 44.1%
Second compound 0.1 µM, first compound 0.3 µM
  viability, T/C: 30.1%
Second compound 0.1 µM, first compound 0.949 µM
  viability, T/C: 21%
Second compound 0.1 µM, first compound 3 µM
  viability, T/C: 10.4%
Second compound 0.316 µM, first compound 0.00949 µM
  viability, T/C: 74.5%
Second compound 0.316 µM, first compound 0.03 µM
  viability, T/C: 61.5%
Second compound 0.316 µM, first compound 0.0949 µM
  viability, T/C: 43.3%
Second compound 0.316 µM, first compound 0.3 µM
  viability, T/C: 25.9%
Second compound 0.316 µM, first compound 0.949 µM
  viability, T/C: 16.6%
Second compound 0.316 µM, first compound 3 µM
  viability, T/C: 8.73%
Second compound 1 µM, first compound 0.00949 µM
  viability, T/C: 66.4%
Second compound 1 µM, first compound 0.03 µM
  viability, T/C: 60.5%
Second compound 1 µM, first compound 0.0949 µM
  viability, T/C: 29%
Second compound 1 µM, first compound 0.3 µM
  viability, T/C: 20.8%
Second compound 1 µM, first compound 0.949 µM
  viability, T/C: 13.8%
Second compound 1 µM, first compound 3 µM
  viability, T/C: 5.73%
Second compound 3.16 µM, first compound 0.00949 µM
  viability, T/C: 64%
Second compound 3.16 µM, first compound 0.03 µM
  viability, T/C: 41.6%
Second compound 3.16 µM, first compound 0.0949 µM
  viability, T/C: 26.7%
Second compound 3.16 µM, first compound 0.3 µM
  viability, T/C: 15.1%
Second compound 3.16 µM, first compound 0.949 µM
  viability, T/C: 9.74%
Second compound 3.16 µM, first compound 3 µM
  viability, T/C: 5.86%
Second compound 10 µM, first compound 0.00949 µM
  viability, T/C: 49.8%
Second compound 10 µM, first compound 0.03 µM
  viability, T/C: 33.1%
Second compound 10 µM, first compound 0.0949 µM
  viability, T/C: 25.5%
Second compound 10 µM, first compound 0.3 µM
  viability, T/C: 12.2%
Second compound 10 µM, first compound 0.949 µM
  viability, T/C: 9.35%
Second compound 10 µM, first compound 3 µM
  viability, T/C: 3.2%
